pIC50: −log10 of the molar value. Numbered stars: 1 amine (or outer) side, 2 acyl side, 3 side chain; on linkers, the order of the positions; unused ones are H or OH. Square brackets hold non-standard residues; d marks the D form. Peptide text beside a SMILES is read from it. ξ: configuration not given here. X3 = C[C@@H](OP(=O)(O)OCC[C@@H](O)CO)[C@H](N[*:1])C(=O)[*:2]; X20 = O=C([C@H](Cc1cncn1CC[C@@H](O)CO)N[*:1])[*:2]; X13 = COP(=O)(O)O[C@H](C)[C@H](N[*:1])C(=O)[*:2]; pT = C[C@@H](OP(=O)(O)O)[C@H](N)C(=O)O; ξP = O=C(O)C1CCCN1
Biological target: Serine/threonine-protein kinase PLK1 (Homo sapiens, UniProt P53350)
Sequence (P53350 whole entry): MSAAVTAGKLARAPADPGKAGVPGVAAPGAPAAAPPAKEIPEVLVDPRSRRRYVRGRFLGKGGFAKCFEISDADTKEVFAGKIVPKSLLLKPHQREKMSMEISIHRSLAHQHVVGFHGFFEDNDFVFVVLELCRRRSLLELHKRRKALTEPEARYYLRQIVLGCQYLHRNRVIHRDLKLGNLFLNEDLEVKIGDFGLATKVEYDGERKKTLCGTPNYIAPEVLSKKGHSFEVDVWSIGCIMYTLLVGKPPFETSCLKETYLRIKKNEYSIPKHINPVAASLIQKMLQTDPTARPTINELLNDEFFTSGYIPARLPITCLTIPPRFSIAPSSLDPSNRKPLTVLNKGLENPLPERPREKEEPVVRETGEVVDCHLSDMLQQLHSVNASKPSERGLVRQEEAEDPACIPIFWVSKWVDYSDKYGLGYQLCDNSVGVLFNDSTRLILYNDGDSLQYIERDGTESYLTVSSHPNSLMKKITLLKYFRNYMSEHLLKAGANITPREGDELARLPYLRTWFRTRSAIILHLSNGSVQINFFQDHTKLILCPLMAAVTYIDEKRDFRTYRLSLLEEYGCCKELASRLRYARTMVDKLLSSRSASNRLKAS
Assay: Inhibition Assay
Details: pH 8; 25 °C
Text: The evaluation of Plk1 PBD binding affinities of the synthetic compounds using an ELISA-based 96-well assay.

pIC50	SMILES
< 3.70	CC(=O)N1CCCC1C(=O)N[C@@H](CC(C)C)C(=O)N[C@@H](Cc1cnc[nH]1)C(=O)N[C@@H](CO)C(=O)N[C@H](C(N)=O)[C@@H](C)OP(=O)(O)OCC[C@@H](O)CO (stereo partly drawn) [Phosphodiester analog, 3b] (Ac-[ξP]LHS[X3]-NH2)
< 3.70	CC(=O)N1CCCC1C(=O)N[C@@H](CC(C)C)C(=O)N[C@@H](Cc1cncn1CC[C@@H](O)CO)C(=O)N[C@@H](CO)C(=O)N[C@H](C(N)=O)[C@@H](C)OP(=O)(O)O (stereo partly drawn) [Phosphodiester analog, 4b] (Ac-[ξP]L[X20]S[pT]-NH2)

SMILES	pIC50
COP(=O)(O)O[C@H](C)[C@H](NC(=O)[C@H](CO)NC(=O)[C@H](Cc1cnc[nH]1)NC(=O)[C@H](CC(C)C)NC(=O)C1CCCN1C(C)=O)C(N)=O (stereo partly drawn) [Phosphodiester analog, 3a] (Ac-[ξP]LHS[X13]-NH2)	< 3.70
